The target in assay [1] is T1, Nuclear factor erythroid 2-related factor 2 (Homo sapiens) (UniProt Q16236).
T1 sequence (whole entry): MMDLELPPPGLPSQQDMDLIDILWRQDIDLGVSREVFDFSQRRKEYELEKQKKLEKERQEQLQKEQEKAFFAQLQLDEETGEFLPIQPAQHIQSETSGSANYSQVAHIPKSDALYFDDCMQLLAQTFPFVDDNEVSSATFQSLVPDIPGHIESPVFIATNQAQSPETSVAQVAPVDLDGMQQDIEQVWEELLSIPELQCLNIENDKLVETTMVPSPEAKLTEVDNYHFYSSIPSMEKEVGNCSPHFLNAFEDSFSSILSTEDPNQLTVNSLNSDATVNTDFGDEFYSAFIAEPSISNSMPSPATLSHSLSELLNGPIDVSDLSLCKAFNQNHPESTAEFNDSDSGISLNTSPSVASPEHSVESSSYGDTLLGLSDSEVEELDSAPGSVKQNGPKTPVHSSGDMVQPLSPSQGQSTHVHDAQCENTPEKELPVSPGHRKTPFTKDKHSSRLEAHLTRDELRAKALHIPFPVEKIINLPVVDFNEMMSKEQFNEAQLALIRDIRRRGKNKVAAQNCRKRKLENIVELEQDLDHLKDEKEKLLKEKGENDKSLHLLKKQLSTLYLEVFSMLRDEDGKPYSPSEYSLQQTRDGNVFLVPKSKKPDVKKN
As to the kind of experiment: Activation of Nrf2 in normal human lung fibroblasts assessed as induction of HMOX protein expression at 0.156 uM incubated for 16 to 18 hrs by immunostaining relative to control.

Assay [2] addresses T1, Nuclear factor erythroid 2-related factor 2 (Homo sapiens). As to the kind of experiment: Activation of Nrf2 in normal human lung fibroblasts assessed as induction of HMOX protein expression at 0.0024 uM incubated for 16 to 18 hrs by immunostaining relative to control.
For assay [3] the target is unchanged. Briefly: Activation of Nrf2 in normal human lung fibroblasts assessed as induction of HMOX protein expression at 0.078 uM incubated for 16 to 18 hrs by immunostaining relative to control.
Assay [4] shares this target. As to the kind of experiment: Activation of Nrf2 in normal human lung fibroblasts assessed as induction of HMOX protein expression at 0.0097 uM incubated for 16 to 18 hrs by immunostaining relative to control.
Assay [5] shares this target. Briefly: Activation of Nrf2 in normal human lung fibroblasts assessed as induction of HMOX protein expression at 0.039 uM incubated for 16 to 18 hrs by immunostaining relative to control.
For assay [6] the target is unchanged. As to the kind of experiment: Activation of Nrf2 in normal human lung fibroblasts assessed as induction of HMOX protein expression at 0.312 uM incubated for 16 to 18 hrs by immunostaining relative to control.
For assay [7] the target is unchanged. As to the kind of experiment: Activation of Nrf2 in normal human lung fibroblasts assessed as induction of HMOX protein expression at 0.019 uM incubated for 16 to 18 hrs by immunostaining relative to control.
Assay [8] shares this target. As to the kind of experiment: Activation of Nrf2 in normal human lung fibroblasts assessed as induction of HMOX protein expression at 0.0048 uM incubated for 16 to 18 hrs by immunostaining relative to control.
For assay [9] the target is unchanged. As to the kind of experiment: Activation of Nrf2 in normal human lung fibroblasts assessed as induction of HMOX protein expression at 30 uM incubated for 16 to 18 hrs by immunostaining relative to control.
Assay [10] shares this target. As to the kind of experiment: Activation of Nrf2 in normal human lung fibroblasts assessed as induction of HMOX protein expression at 0.3 uM incubated for 16 to 18 hrs by immunostaining relative to control.
Assay [11] has the same target. Briefly: Activation of Nrf2 in normal human lung fibroblasts assessed as induction of HMOX protein expression at 0.1 uM incubated for 16 to 18 hrs by immunostaining relative to control.
For assay [12] the target is unchanged. As to the kind of experiment: Activation of Nrf2 in normal human lung fibroblasts assessed as induction of HMOX protein expression by measuring HMOX positive cells level at 3 uM incubated for 16 to 18 hrs by immunostaining relative to control DMSO.
Assay [13] shares this target. Briefly: Activation of Nrf2 in normal human lung fibroblasts assessed as induction of HMOX protein expression at 3 uM incubated for 16 to 18 hrs by immunostaining relative to control.
Assay [14] has the same target. As to the kind of experiment: Activation of Nrf2 in normal human lung fibroblasts assessed as induction of HMOX protein expression by measuring HMOX positive cells level at 30 uM incubated for 16 to 18 hrs by immunostaining relative to control DMSO.
For assay [15] the target is unchanged. As to the kind of experiment: Activation of Nrf2 in normal human lung fibroblasts assessed as induction of HMOX protein expression by measuring HMOX positive cells level at 1 uM incubated for 16 to 18 hrs by immunostaining relative to control DMSO.
The target is the same in assay [16]. Briefly: Activation of Nrf2 in normal human lung fibroblasts assessed as induction of HMOX protein expression at 1 uM incubated for 16 to 18 hrs by immunostaining relative to control.
Assay [17] has the same target. As to the kind of experiment: Activation of Nrf2 in normal human lung fibroblasts assessed as induction of HMOX protein expression by measuring HMOX positive cells level at 0.03 uM incubated for 16 to 18 hrs by immunostaining relative to control DMSO.
For assay [18] the target is unchanged. Briefly: Activation of Nrf2 in normal human lung fibroblasts assessed as induction of HMOX protein expression by measuring HMOX positive cells level at 0.1 uM incubated for 16 to 18 hrs by immunostaining relative to control DMSO.
Assay [19] shares this target. As to the kind of experiment: Activation of Nrf2 in normal human lung fibroblasts assessed as induction of HMOX protein expression at 10 uM incubated for 16 to 18 hrs by immunostaining relative to control.
The target is the same in assay [20]. As to the kind of experiment: Activation of Nrf2 in normal human lung fibroblasts assessed as induction of HMOX protein expression by measuring HMOX positive cells level at 10 uM incubated for 16 to 18 hrs by immunostaining relative to control DMSO.
For assay [21] the target is unchanged. As to the kind of experiment: Activation of Nrf2 in normal human lung fibroblasts assessed as induction of HMOX protein expression at 0.03 uM incubated for 16 to 18 hrs by immunostaining relative to control.
For assay [22] the target is unchanged. Briefly: Activation of Nrf2 in normal human lung fibroblasts assessed as induction of HMOX protein expression by measuring HMOX positive cells level at 0.3 uM incubated for 16 to 18 hrs by immunostaining relative to control DMSO.

Here are results for two molecules from ChEMBL document CHEMBL4421728, “Bach1 Inhibitors in Combination with Nrf2 Activators and Pharmaceutical Compositions Thereof” (2017).

Take `COC(=O)[C@]12CCC(C)(C)C[C@H]1[C@H]1C(=O)C=C3[C@@]4(C)C=C(C#N)C(=O)C(C)(C)[C@@H]4CC[C@@]3(C)[C@]1(C)CC2`: the fold change (FC) was 19 in assay [1]; 1.31 in assay [2]; 12.2 in [3]; 2.53 in assay [4]; 8.48 in [5]; 16.4 in assay [6]. The results for the fold change (FC) in assay [7] and in assay [8] were 5 and 1.59, respectively.

`COC(=O)/C=C/C(=O)OC`: the fold change (FC) in assay [9] came to 6.19; in assay [10], 1.14; in assay [11], 1.06; in assay [13], 2.76; in assay [16] it was 1.39; in assay [19], 4.45. Moreover, the fold change (FC) in [21] is 1.04. In addition, the Activity in assay [12] came to 41.6%; in [14], 84.6%; in assay [15], 4.38%; in [17] it was 1.71%; in assay [18] it was 1.21%; in [20], 74.3%. Besides, the Activity in assay [22] was determined as 2.47%.
